{
  "source": "patent US6475790B2",
  "about": "“Assay for screening agents that alter angiogenesis” (Biocure Limited, priority 1997, dated 2002)",
  "system": "co-culture of Human Umbilical Vein Endothelial Cells (HUVEC) with Human Adult Dermal Fibroblasts",
  "assay": "multicellular in vitro angiogenesis (tubule) assay, dual culture of HUVEC and fibroblasts",
  "assay_type": "cell-based",
  "details": "VEGF 10 ngml^-1 added at the start and at each medium change; 14 days; von Willebrand factor immunoassay",
  "source_text": "The assay system involves co-culture of Human Umbilical Vein Endothelial Cells (HUVEC) with Human Adult Dermal Fibroblasts. Under the conditions provided the cells form a series of anastomosed tubules.\nThe Human Umbilical Vein Endothelial Cells (HUVEC) are commercially available from suitable outlets and in this case are bought in cryopreserved form. Prior to employment in the tubule assay, the cells are routinely passed and cultured in any suitable commercially available Endothelial Growth Medium, EGM, containing 2% foetal calf serum. The HUVEC are used at passes 2 to 6 in the assay.\nThe Human Adult Dermal Fibroblasts are cultured from skin samples which may be obtained from local hospitals. […]\nThe tissue culture treated vessels to be used in the assay are equilibrated by pre-incubation with EGM, plus and minus treatments, for a period of 30 minutes at 37° C., 5% CO2 humidified atmosphere. […] The cells are resuspended in EGM and counted. […] The techniques and materials involved in culturing endothelial cells are well known to persons of skill in the art, and are readily available from standard texts. […]\nVisualization of the tubules is accomplished most readily by an immunoassay that targets a cell marker on one or both of the cells being cultured. […]",
  "note": "Entries after “also recorded” stand apart in the source; their conditions may differ.",
  "data": [
    {"substance": "VEGF", "values": [
      {"measurement": "tubule formation", "value": "marked increase; also recorded: much enhanced"}
    ]}
  ]
}
